According to ChEMBL document CHEMBL3132764, “-Aminophosphonates as novel anti-leishmanial chemotypes: synthesis, biological evaluation, and CoMFA studies” (Medchemcomm, 2014):

Assays:
[1] = Selectivity index, ratio of CC50 for mouse J774A1 cells to IC50 for promastigote stage of wild type Leishmania donovani MHOM/80/IN/Dd8; assay type: functional, J774.A1
[2] = Cytotoxicity against mouse J774A1 cells after 48 hrs by MTT assay; assay type: cell-based, J774.A1
Leishmania donovani = assay: Antileishmanial activity against promastigote stage of wild type Leishmania donovani MHOM/80/IN/Dd8 after 48 hrs by MTT assay; assay type: functional, organism-based; conditions: MHOM/80/IN/Dd8, 48 h
[3] = Half life in human; assay type: ADME, organism-based; conditions: in vivo

SMILES | Ratio CC50/IC50 [1] | CC50 at 48 h [2] [µM] | IC50 (Leishmania donovani; read-out: IC50) [µM] | IC50 (Leishmania donovani; read-out: pIC50 (converted)) [µM] | half-life [3] [h]
COP(=O)(OC)C1(Nc2ccccc2)CCCCC1 | 0.46 | 7.5 | 16.4 | 16.2 | –
COP(=O)(OC)C(Nc1ccccc1)c1ccccc1 (racemic) | 0.93 | 12.5 | 13.5 | 13.5 | –
COP(=O)(OC)C(Nc1ccccc1)C1CCCCC1 (racemic) | – | 14 | > 100 | – | –
COP(=O)(OC)C(Nc1ccccc1)c1ccc(N(C)C)cc1 (racemic) | – | 5 | > 100 | – | –
COP(=O)(OC)C(Nc1ccccc1)c1cccc(O)c1 (racemic) | – | > 100 | > 100 | – | –
COc1ccc(C(Nc2cc(C)on2)P(=O)(OC)OC)cc1 (racemic) | 0.94 | 7.5 | 8 | 7.94 | –
COc1ccc(C(Nc2nc3c(C)cccc3s2)P(=O)(OC)OC)cc1 (racemic) | 0.97 | 8.5 | 8.75 | 8.71 | –
COP(=O)(OC)C(Nc1ccccc1)c1ccc([N+](=O)[O-])cc1 (racemic) | 0.56 | 5 | 8.95 | 8.91 | –
COP(=O)(OC)C(Nc1ccccc1)c1ccccc1O (racemic) | 0.56 | 5 | 8.95 | 8.91 | –
COc1ccc(C(Nc2ccccc2)P(=O)(OC)OC)cc1O (racemic) | 3.18 | 31 | 9.75 | 9.77 | –
COP(=O)(OC)C(C)(Nc1ccccc1)c1ccccc1 (racemic) | 0.44 | 6 | 13.5 | 13.5 | –
COc1cc(C(Nc2ccccc2)P(=O)(OC)OC)cc(OC)c1O (racemic) | 0.74 | 10 | 13.5 | 13.5 | –
COP(=O)(OC)C(/C=C/c1ccccc1)Nc1ccccc1 (racemic) | 0.46 | 8 | 17.5 | 17.4 | –
COc1ccccc1C(Nc1ccccc1)P(=O)(OC)OC (racemic) | 0.33 | 6 | 18 | 18.2 | –
COc1ccc(C(Nc2nc3c(Cl)cccc3s2)P(=O)(OC)OC)cc1 (racemic) | – | – | 22 | 21.9 | –
COP(=O)(OC)C(Nc1ccccc1)c1ccccc1Br (racemic) | 0.24 | 5.5 | 22.5 | 22.4 | –
COP(=O)(OC)C(Nc1ccccc1)c1ccccc1F (racemic) | 0.5 | 12 | 24 | 24 | –
COc1ccc(C(Nc2ccccc2)P(=O)(OC)OC)cc1 (racemic) | 0.22 | 5.5 | 25 | 25.1 | –
COP(=O)(OC)C(Nc1cc(C)on1)c1ccccc1 (racemic) | – | – | 30 | 30.2 | –
COP(=O)(OC)C(Nc1ccccc1)c1ccc(Cl)cc1 (racemic) | 1.08 | 39 | 36 | 36.3 | –
COP(=O)(OC)C(Nc1ccccc1)c1ccc(Br)cc1 (racemic) | 0.17 | 6.5 | 39 | 38.9 | –
COP(=O)(OC)C(Nc1ccccc1)c1cccc2ccccc12 (racemic) | – | > 100 | 56 | 56.2 | –
COP(=O)(OC)C(Nc1ccccc1)c1ccccn1 (racemic) | 0.06 | 5 | 90 | 89.1 | –
COP(=O)(OC)C(Nc1ccccc1)c1ccc2ccccc2c1 (racemic) | 0.07 | 6.1 | 91.5 | 91.2 | –
COc1cc(C(Nc2ccccc2)P(=O)(OC)OC)ccc1O (racemic) | 0.7 | 5 | 7.1 | 7.08 | –
COP(=O)(OC)C(Nc1ccccc1)c1ccc(O)cc1 (racemic) | 0.81 | 6.5 | 8 | 7.94 | –
C[C@@H]1[C@H](O)[C@@H](C)/C=C/C=C/C=C/C=C/C=C/C=C/C=C/[C@H](O[C@@H]2O[C@H](C)[C@@H](O)[C@H](N)[C@@H]2O)C[C@@H]2O[C@](O)(C[C@@H](O)C[C@@H](O)[C@H](O)CC[C@@H](O)C[C@@H](O)CC(=O)O[C@H]1C)C[C@H](O)[C@H]2C(=O)O [AMPHOTERICIN B] | 17.28 | 7 | 0.405 | – | –
CCCCCCCCCCCCCCCCOP(=O)([O-])OCC[N+](C)(C)C [MILTEFOSINE] | – | – | – | – | 144
